Data as given in PMC6479349, “Derivatives of 3-Aminopyrazine-2-carboxamides: Synthesis, Antimicrobial Evaluation, and in Vitro Cytotoxicity” (Molecules, 2019).
≈ marks a conversion by molar mass, not a printed value.

Key:
[1] = system: Mycobacterium tuberculosis H37Rv; assay: Antimycobacterial microdilution broth MIC (Alamar Blue); assay type: cell-based
[2] = system: Mycobacterium smegmatis DSM 43465; assay: Antimycobacterial microdilution broth panel MIC (resazurin); assay type: cell-based; settings: for MIC: Mycolicibacterium smegmatis
[3] = Lipophilicity by reverse phase HPLC (log k); settings: RP-HPLC C18, MeOH 70% / H2O 30%, 30 °C
Description: The mobile phase consisted of MeOH (HPLC grade, 70%) and H2O (HPLC-Milli-Q Grade, 30%). The flow rate was 1.0 mL/min, samples were injected in a volume of 20 µL, and the column temperature was 30 °C. Detection and monitoring wavelength were 210 nm and 270 nm, respectively. Retention times (Rt) were measured in minutes. The dead time of the system (Dt) was determined as the retention time of the KI methanolic solution. Capacity factors k for individual compounds were calculated according to the formula k = (Rt – Dt)/Dt. Capacity factor k was converted to log scale and (log k) and used as a measure of lipophilicity.

[4] = Solubility in the cytotoxicity testing medium; settings: cytotoxicity assay medium; highest tested concentration 50 µM
[5] = In vitro cytotoxicity, CellTiter 96 Aqueous One; settings: human
[6] = system: HepG2 cell line; assay: In vitro cytotoxicity, CellTiter 96 Aqueous One
[7] = system: Ataxia Telangiectasia and Rad3 Related (ATR) protein kinase; design: method as in doi:10.1007/s00044-013-0665-6; settings: cited from earlier work
[8] = system: Candida albicans CCM 8320; assay: Antifungal microdilution broth MIC; settings: CCM8320, 48 h, read-out: MIC Candida albicans (standards)
[9] = system: C. krusei CCM 8271; assay: Antifungal microdilution broth MIC; settings: Pichia kudriavzevii, CCM8271, 48 h, read-out: MIC C. krusei (standards)
[10] = system: C. parapsilosis CCM 8260; assay: Antifungal microdilution broth MIC; settings: Lodderomyces parapsilosis, CCM8260, 48 h, read-out: MIC C. parapsilosis (standards)
[11] = system: C. tropicalis CCM 8264; assay: Antifungal microdilution broth MIC; settings: Candida tropicalis, CCM8264, 48 h, read-out: MIC C. tropicalis (standards)
[12] = system: Aspergillus flavus CCM 8363; assay: Antifungal microdilution broth MIC; settings: CCM8363, 48 h, read-out: MIC Aspergillus flavus (standards)
[13] = system: Lichtheimia corymbifera CCM 8077; assay: Antifungal microdilution broth MIC; settings: CCM8077, 48 h, read-out: MIC Lichtheimia corymbifera (standards)
[14] = system: Trichophyton interdigitale CCM 8377; assay: Antifungal microdilution broth MIC; settings: Trichophyton interdigitale, CCM8377, 72 h, read-out: MIC Trichophyton interdigitale (standards)
[15] = system: Aspergillus fumigatus ATCC 204305; assay: Antifungal microdilution broth MIC; settings: ATCC204305, 48 h, read-out: MIC Aspergillus fumigatus (standards)
[16] = system: M. kansasii CNCTC My 235/80; assay: Antimycobacterial microdilution broth MIC (Alamar Blue); assay type: cell-based, Mycobacterium kansasii
[17] = system: M. avium ssp. avium CNCTC My 80/72; assay: as above; assay type: cell-based, Mycobacterium avium
[18] = system: Mycobacterium aurum DSM 43999; assay: Antimycobacterial microdilution broth panel MIC (resazurin); assay type: cell-based; settings: Mycolicibacterium aurum, DSM43999
[19] = system: Pseudomonas aeruginosa CCM 3955; design: method as in PMID 26084645; settings: previously published positional isomer; cited from earlier work
[20] = Mycobacterium tuberculosis, H37RV, M. tuberculosis H37Rv, value in parentheses
[21] = Mycobacterium tuberculosis, H37RV, pH 6.6, M. tuberculosis H37Rv, Middlebrook 7H9 pH 6.6

## COc1ccc(NC(=O)c2nccnc2N)c(OC)c1 [Compound 17, 3-Amino-N-(2,4-dimethoxyphenyl)pyrazine-2-carboxamide]
[1]; M. tuberculosis H37Rv, value in parentheses
  MIC: 45.6 µM
[1]; [20]
  MIC: 46 µM
[1]; [21]
  MIC: 12.5 µg/mL
[2]; DSM43465
  MIC: > 500 µg/mL
[2]; DSM43465, value in parentheses
  MIC: > 1820 µM
[3]
  log k: 0.37
[4]
  solubility in the testing medium: decreased solubility
[5]
  IC50 at 24 h: > 50 µM
[6]
  cytotoxicity against HepG2: nontoxic

## Nc1nccnc1C(=O)Nc1ccccc1 [Compound 13, 3-Amino-N-phenylpyrazine-2-carboxamide]
[1]; [20]
  MIC: > 467 µM
[1]; [21]
  MIC: > 100 µg/mL
[2]; DSM43465
  MIC: > 500 µg/mL
[2]; DSM43465, value in parentheses
  MIC: > 2330 µM
[7]
  inhibitory effects on ATR protein kinase: inhibitory effects
[3]
  log k: 0.189

## C[C@@H](c1ncncc1F)[C@](O)(Cn1cncn1)c1ccc(F)cc1F [voriconazole]
[8]
  MIC: > 16 µg/mL
[9]
  MIC: 0.5 µg/mL (≈ 1.43 µM)
[10]
  MIC: 8 µg/mL (≈ 22.9 µM)
[11]
  MIC: > 16 µg/mL
[12]
  MIC: > 16 µg/mL
[13]
  MIC: > 16 µg/mL
[14]
  MIC: > 16 µg/mL
[15]
  MIC: 1 µg/mL (≈ 2.86 µM)

## NNC(=O)c1ccncc1 [INH, isoniazid, reference compound]
[1]; [21]
  MIC: 0.1 to 0.2 µg/mL
[16]
  MIC M. kansasii: 3.13 to 12.5 µg/mL
[17]
  MIC M. avium: 6.25 to 12.5 µg/mL
[2]
  MIC M. smegmatis: 7.81 to 15.62 µg/mL
[2]; DSM43465
  MIC: 7.81 to 15.6 µg/mL
[18]
  MIC: 1.95 to 3.91 µg/mL (≈ 14.2 to 28.5 µM)

## Nc1cnc(C(=O)Nc2ccc(C(F)(F)F)cc2)cn1 [5-amino-N-(4-(trifluoromethyl)phenyl)pyrazine-2-carboxamide]
[19]
  MIC P. aeruginosa: 250 µM (≈ 70.6 µg/mL)
